{"source": "PubChem BioAssay AID1918952", "about": "(Molecular Pharmacology Branch, DTP, NCI, 2023);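 also: spheroids exposed to agents for seven days before readout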;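 as to viability, T/C: 100% = DMSO vehicle control wells as normalization base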", "system": "LG0703-F948-PDC complex spheroid viability", "assay": "Anticancer human tumor LG0703-F948-PDC patient-derived lung adenocarcinoma cell line growth inhibition", "details": "for IC50: curve of first compound; for viability, T/C: stronger effect = lower value", "description": "Multicellular complex tumor spheroid response to LSD1 Inhibitor Iadademstat in combination with a variety of drugs and investigational agents in selected tumor cell lines\nThe current study was undertaken to assess response to LSD1 inhibitors in combination with standard-of-care drugs and investigational agents in solid tumor complex spheroid models as well as in the K-562 leukemia. Complex spheroids include a stromal component modeled by human endothelial cells (HUVEC) and fibroblasts modeled by human mesenchymal stem cells (MSCs). The concentration ranges selected for each drug and investigational agent were based upon clinically achievable concentrations if the clinical Cmax of the agent was known.\nCompounds. The drugs and investigational agents used in this study are listed on Table 1. All of the agents used, including staurosporine (NSC755774) and gemcitabine (NSC613327), were obtained from the Developmental Therapeutics Program, NCI. FDA-approved anticancer drugs are available from the NCI at http://dtp.nci.nih.gov/branches/dscb/oncology_drugset_explanation.html. Drugs and investigational agents were >95% pure by proton nuclear magnetic resonance (NMR) and liquid chromatography/mass spectrometry (LC/MS). Stock solutions were prepared at 400x in DMSO, stored at -70 degrees C, and diluted in fresh medium prior to their use. The final concentration of DMSO in cell culture wells never exceeded 0.25% (v/v). The FDA-approved anticancer drug set is available from the Developmental Therapeutics Program at https://dtp.cancer.gov/organization/dscb/obtaining/available_plates.htm. All drugs and investigational agents were tested over a range starting from a high concentration at or near the clinical Cmax and decreasing in half-log increments. If the clinical Cmax for an agent had not been determined, the highest concentration tested was 10 microM.\nCell Lines. The patient-derived cancer cell (PDC) lines: 292921-168-R-J2-PDC, K24384-001-R-PDC, and 521955-158-R2-J5-PDC pancreatic carcinomas, 556581-035-R-J1 ovarian carcinoma, 324938-238-R-J1-PDC, 855422-203-R-J1-PDC and 883617-216-R-J1-PDC urothelial bladder carcinomas, 743489-274-T-PDC renal cell carcinoma, 138582-R-J1 Merkel cell tumor, K60290-347-R-J1 and K57222-313-R-J1-PDC glioblastomas, 653999-131-R-J2-PDC, LG0703-F948-PDC, and 349418-098-R-PDC non-small cell lung carcinomas, 885512-296-R-J2-PDC, 171881-019-R-J1-PDC breast carcinomas and 186277-243-T-J2-PDC and 233499-124-R-J2-PDC colon carcinomas were obtained from the NCI Patient-Derived Models Repository (PDMR, https://pdmr.cancer.gov). The established cell lines NCI/ADR-RES (RRID:CVCL_14520 and OVCAR-5 (RRID:CVCL_1628) ovarian carcinomas, 786-O (RRID:CVCL_1051) and A498 (RRID:CVCL_A498) renal cell carcinoma, NCI-H211 (ATCC, cat. CRL-5824; RRID:CVCL_1529), NCI-H196 (ATCC, cat. CRL-5823, RRID:CVCL_1509), SW 1271 (ATCC, cat. CRL-2177, RRID:CVCL_1716) and NCI-H1876 (ATCC, cat. CRL-5902, RRID:CVCL_1503) small cell lung carcinomas, MDA-MB-231 (RRID:CVCL_0062) and MDA-MB-468 (RRID:CVCL_0419)breast carcinomas (10-12). Pooled donor human umbilical vein endothelial cells (HUVEC, Lonza, cat. CC-2519) and human mesenchymal stem cells (hMSC, Lonza, cat. PT-2501) were purchased from Lonza (Walkersville, MD).\nCell Culture. All cells were maintained in an incubator at 37 degrees C and 5% CO2 with 95% humidity. The PDC lines were cultured according to standard operating procedures established by the NCI PDMR (https://pdmr.cancer.gov). Briefly all PDCs were thawed and cultured in Matrigel-coated flasks prepared with a working solution of 1X Ham's F-12 nutrient mix, without supplementation (Invitrogen, Waltham, MA, cat. 11765054), 100 U/mL penicillin-streptomycin (Invitrogen, cat. 15140122), and 2.5% Matrigel (Corning Inc., Corning, NY, cat. 354248) for the first three passages. […]", "data": [{"smiles": "COc1cc(C2c3cc4c(cc3C(OC3OC5COC(C)OC5C(O)C3O)C3COC(=O)C23)OCO4)cc(OC)c1O", "note": "(stereo not given) + NC1CC1c1ccc(-c2cccc(O)c2)cc1", "values": [{"measurement": "IC50", "setting": "second compound 0.1 µM", "result": "> 3", "unit": "µM"}, {"measurement": "IC50", "setting": "second compound 0.316 µM", "result": "> 3", "unit": "µM"}, {"measurement": "IC50", "setting": "second compound 1 µM", "result": "> 3", "unit": "µM"}, {"measurement": "IC50", "setting": "second compound 3.16 µM", "result": "> 3", "unit": "µM"}, {"measurement": "IC50", "setting": "second compound 10 µM", "result": "> 3", "unit": "µM"}, {"measurement": "viability, T/C", "setting": "second compound 0.1 µM, first compound 0.00949 µM", "result": 117, "unit": "%"}, {"measurement": "viability, T/C", "setting": "second compound 0.1 µM, first compound 0.03 µM", "result": 126, "unit": "%"}, {"measurement": "viability, T/C", "setting": "second compound 0.1 µM, first compound 0.0949 µM", "result": 101, "unit": "%"}, {"measurement": "viability, T/C", "setting": "second compound 0.1 µM, first compound 0.3 µM", "result": 98.5, "unit": "%"}, {"measurement": "viability, T/C", "setting": "second compound 0.1 µM, first compound 0.949 µM", "result": 89.5, "unit": "%"}, {"measurement": "viability, T/C", "setting": "second compound 0.1 µM, first compound 3 µM", "result": 66.9, "unit": "%"}, {"measurement": "viability, T/C", "setting": "second compound 0.316 µM, first compound 0.00949 µM", "result": 117, "unit": "%"}, {"measurement": "viability, T/C", "setting": "second compound 0.316 µM, first compound 0.03 µM", "result": 111, "unit": "%"}, {"measurement": "viability, T/C", "setting": "second compound 0.316 µM, first compound 0.0949 µM", "result": 106, "unit": "%"}, {"measurement": "viability, T/C", "setting": "second compound 0.316 µM, first compound 0.3 µM", "result": 88.4, "unit": "%"}, {"measurement": "viability, T/C", "setting": "second compound 0.316 µM, first compound 0.949 µM", "result": 92.2, "unit": "%"}, {"measurement": "viability, T/C", "setting": "second compound 0.316 µM, first compound 3 µM", "result": 75.4, "unit": "%"}, {"measurement": "viability, T/C", "setting": "second compound 1 µM, first compound 0.00949 µM", "result": 104, "unit": "%"}, {"measurement": "viability, T/C", "setting": "second compound 1 µM, first compound 0.03 µM", "result": 115, "unit": "%"}, {"measurement": "viability, T/C", "setting": "second compound 1 µM, first compound 0.0949 µM", "result": 105, "unit": "%"}, {"measurement": "viability, T/C", "setting": "second compound 1 µM, first compound 0.3 µM", "result": 95.9, "unit": "%"}, {"measurement": "viability, T/C", "setting": "second compound 1 µM, first compound 0.949 µM", "result": 105, "unit": "%"}, {"measurement": "viability, T/C", "setting": "second compound 1 µM, first compound 3 µM", "result": 77.8, "unit": "%"}, {"measurement": "viability, T/C", "setting": "second compound 3.16 µM, first compound 0.00949 µM", "result": 102, "unit": "%"}, {"measurement": "viability, T/C", "setting": "second compound 3.16 µM, first compound 0.03 µM", "result": 121, "unit": "%"}, {"measurement": "viability, T/C", "setting": "second compound 3.16 µM, first compound 0.0949 µM", "result": 117, "unit": "%"}, {"measurement": "viability, T/C", "setting": "second compound 3.16 µM, first compound 0.3 µM", "result": 100, "unit": "%"}, {"measurement": "viability, T/C", "setting": "second compound 3.16 µM, first compound 0.949 µM", "result": 88.1, "unit": "%"}, {"measurement": "viability, T/C", "setting": "second compound 3.16 µM, first compound 3 µM", "result": 86.2, "unit": "%"}, {"measurement": "viability, T/C", "setting": "second compound 10 µM, first compound 0.00949 µM", "result": 104, "unit": "%"}, {"measurement": "viability, T/C", "setting": "second compound 10 µM, first compound 0.03 µM", "result": 116, "unit": "%"}, {"measurement": "viability, T/C", "setting": "second compound 10 µM, first compound 0.0949 µM", "result": 99.9, "unit": "%"}, {"measurement": "viability, T/C", "setting": "second compound 10 µM, first compound 0.3 µM", "result": 103, "unit": "%"}, {"measurement": "viability, T/C", "setting": "second compound 10 µM, first compound 0.949 µM", "result": 81.6, "unit": "%"}, {"measurement": "viability, T/C", "setting": "second compound 10 µM, first compound 3 µM", "result": 66.8, "unit": "%"}]}, {"smiles": "Nc1ncn(C2CC(O)C(CO)O2)c(=O)n1", "note": "(stereo not given) + NC1CC1c1ccc(-c2cccc(O)c2)cc1", "values": [{"measurement": "IC50", "setting": "second compound 0.1 µM", "result": "> 1", "unit": "µM"}, {"measurement": "IC50", "setting": "second compound 0.316 µM", "result": "> 1", "unit": "µM"}, {"measurement": "IC50", "setting": "second compound 1 µM", "result": "> 1", "unit": "µM"}, {"measurement": "IC50", "setting": "second compound 3.16 µM", "result": "> 1", "unit": "µM"}, {"measurement": "IC50", "setting": "second compound 10 µM", "result": "> 1", "unit": "µM"}, {"measurement": "viability, T/C", "setting": "second compound 0.1 µM, first compound 0.00316 µM", "result": 106, "unit": "%"}, {"measurement": "viability, T/C", "setting": "second compound 0.1 µM, first compound 0.01 µM", "result": 111, "unit": "%"}, {"measurement": "viability, T/C", "setting": "second compound 0.1 µM, first compound 0.0316 µM", "result": 99.3, "unit": "%"}, {"measurement": "viability, T/C", "setting": "second compound 0.1 µM, first compound 0.1 µM", "result": 116, "unit": "%"}, {"measurement": "viability, T/C", "setting": "second compound 0.1 µM, first compound 0.316 µM", "result": 85.4, "unit": "%"}, {"measurement": "viability, T/C", "setting": "second compound 0.1 µM, first compound 1 µM", "result": 88.9, "unit": "%"}, {"measurement": "viability, T/C", "setting": "second compound 0.316 µM, first compound 0.00316 µM", "result": 116, "unit": "%"}, {"measurement": "viability, T/C", "setting": "second compound 0.316 µM, first compound 0.01 µM", "result": 117, "unit": "%"}, {"measurement": "viability, T/C", "setting": "second compound 0.316 µM, first compound 0.0316 µM", "result": 106, "unit": "%"}, {"measurement": "viability, T/C", "setting": "second compound 0.316 µM, first compound 0.1 µM", "result": 95.2, "unit": "%"}, {"measurement": "viability, T/C", "setting": "second compound 0.316 µM, first compound 0.316 µM", "result": 95.7, "unit": "%"}, {"measurement": "viability, T/C", "setting": "second compound 0.316 µM, first compound 1 µM", "result": 94.3, "unit": "%"}, {"measurement": "viability, T/C", "setting": "second compound 1 µM, first compound 0.00316 µM", "result": 106, "unit": "%"}, {"measurement": "viability, T/C", "setting": "second compound 1 µM, first compound 0.01 µM", "result": 103, "unit": "%"}, {"measurement": "viability, T/C", "setting": "second compound 1 µM, first compound 0.0316 µM", "result": 104, "unit": "%"}, {"measurement": "viability, T/C", "setting": "second compound 1 µM, first compound 0.1 µM", "result": 95.7, "unit": "%"}, {"measurement": "viability, T/C", "setting": "second compound 1 µM, first compound 0.316 µM", "result": 96.3, "unit": "%"}, {"measurement": "viability, T/C", "setting": "second compound 1 µM, first compound 1 µM", "result": 94.6, "unit": "%"}, {"measurement": "viability, T/C", "setting": "second compound 3.16 µM, first compound 0.00316 µM", "result": 108, "unit": "%"}, {"measurement": "viability, T/C", "setting": "second compound 3.16 µM, first compound 0.01 µM", "result": 112, "unit": "%"}, {"measurement": "viability, T/C", "setting": "second compound 3.16 µM, first compound 0.0316 µM", "result": 99.8, "unit": "%"}, {"measurement": "viability, T/C", "setting": "second compound 3.16 µM, first compound 0.1 µM", "result": 89.7, "unit": "%"}, {"measurement": "viability, T/C", "setting": "second compound 3.16 µM, first compound 0.316 µM", "result": 105, "unit": "%"}, {"measurement": "viability, T/C", "setting": "second compound 3.16 µM, first compound 1 µM", "result": 105, "unit": "%"}, {"measurement": "viability, T/C", "setting": "second compound 10 µM, first compound 0.00316 µM", "result": 103, "unit": "%"}, {"measurement": "viability, T/C", "setting": "second compound 10 µM, first compound 0.01 µM", "result": 104, "unit": "%"}, {"measurement": "viability, T/C", "setting": "second compound 10 µM, first compound 0.0316 µM", "result": 107, "unit": "%"}, {"measurement": "viability, T/C", "setting": "second compound 10 µM, first compound 0.1 µM", "result": 106, "unit": "%"}, {"measurement": "viability, T/C", "setting": "second compound 10 µM, first compound 0.316 µM", "result": 98.4, "unit": "%"}, {"measurement": "viability, T/C", "setting": "second compound 10 µM, first compound 1 µM", "result": 95.3, "unit": "%"}]}]}
